Here are results for 3 molecules from US11311593B2, “Root extracts from plants of the Morus genus and uses of same” (PLANT ADVANCED TECHNOLOGIES PAT, priority 2017, dated 2022).

For one experiment, the system named is hyaluronidase. The experiment in a line: Target Binding affinity test for hyaluronidase. The following applies: ligands in non-stimulated M. alba root extract; moracenin B = reference ligand. The protocol:
A root extract of Morus Alba was prepared in accordance with the protocol described in Example 2.1. The Target Binding® method used was that of Example 2.3 which is described in patent application FR 1 670 545. The experimental protocol was as follows: The target, a 5 mg/mL solution of hyaluronidase, was prepared by dissolving powdered lyophilized enzyme in 50 mM sodium phosphate, with a pH of 7.0. The extract corresponded to the supernatant obtained in accordance with Example 2.1. It could optionally be centrifuged once again before use, at 21000 g for 15 min, in order to eliminate the solid particles before use. A reference sample was also prepared by diluting the sample 10-fold in a solution of water and a quarter of the volume of acetonitrile.
1. Preconditioning step—Wells with a filtering membrane were preconditioned with a volume of 500 μL of a solution of 50 mM sodium phosphate, at a pH of 7.0 which was passed through the membrane by centrifuging at 14000 g for 60 seconds.
2. Binding step—The hyaluronidase preparation (5 mg/mL) was mixed with 7.5 μL of the root extract for 5 min in a plastic Eppendorf tube.
3. Washing step—the mixture of the enzyme and the root extract was deposited in a well that had been preconditioned in the preconditioning step, then centrifuged at 14000 g until most of the solvent had been eliminated. The enzyme-ligand complexes remained on the surface of the membrane of the filter then were re-suspended in a volume of 100 μL of the same solution of 50 mM sodium phosphate at a pH of 7.0, and centrifuged at 14000 g until the solvent had been eliminated. This procedure was repeated three times and eliminated all of the compounds that were not bound to the enzyme. 4. Separation step—The enzyme-ligand complexes retained in the filter were re-suspended in a volume of 10 μL of ultra-pure water then mixed with a volume of 40 μL of acetonitrile in order to denature and precipitate the enzyme and at the same time to liberate the ligands. The mixture was centrifuged at 21000 g for 10 min in order to separate the precipitate from the supernatant. 5. Analysis step—Said supernatant was analyzed by liquid phase chromatography coupled to a mass spectrometer, also known by the acronym UPLC-MS. The reference sample was also analyzed in the same manner, using the same analytical conditions.
(§1) The UPLC-MS analysis was carried out in accordance with the protocol described in Example 1.

The test system of a further experiment is fungal tyrosinase. The experiment in a line: Anti-tyrosinase inhibiting activity, L-tyrosine as substrate, dopachrome at 475 nm. Format: biochemical. The method, then: Morus alba plants were cultivated aeroponically for 8 weeks with a 15/10/30 (N/P/K) culture medium and with an electroconductivity in the range 1.0 and 1.2 mS/cm. The roots were chopped, dried, crushed and macerated in pure ethanol in a ratio of 1 mL of ethanol for 20 mg dry matter in accordance with the protocol described in Example 1. The sample was centrifuged at 21000 g for 10 minutes in order to separate the solid material. The anti-tyrosinase inhibiting activity of the supernatant was measured using L-tyrosine as the substrate. Tyrosinase catalyzes the conversion of L-tyrosine to dopaquinone, which is spontaneously converted into dopachrome. This latter absorbs strongly in the visible range of the electromagnetic spectrum (at 475 nm). The activity of the tyrosinase was measured by following the enzymatic conversion of the colorless L-tyrosine into orange dopachrome with the aid of a microplate reader.
The anti-tyrosinase activity of the supernatant was measured by mixing the following components: 150 μL of the solution of L-tyrosine (1.5 mM) in 50 mM sodium phosphate buffer, pH 6.8; 40 μL of supernatant diluted 2- to 800-fold in ethanol was tested as the inhibitor solution. The enzymatic conversion was initialized by adding a volume of 10 μL of fungal tyrosinase (0.2 mg/mL in a 50 mM sodium phosphate buffer, pH 6.8). The “control” experiment was carried out in the same manner, replacing the supernatant with pure ethanol.
Two root extracts of Morus alba were prepared in accordance with the protocol described in Example 1. The measurement of the anti-tyrosinase inhibiting activity was carried out in accordance with the protocol described in Example 2.1 with 40 μL of each of the two extracts diluted 100-fold or 200-fold in pure ethanol.
The measurement of the anti-tyrosinase inhibiting activity was carried out in accordance with the protocol described in Example 2.1.

Experiment [1] concerns collagenase obtained from Clostridium Histolyticum. The experiment in a line: Target Binding affinity test for collagenase. The following applies: ligands in non-stimulated M. alba root extract; moracenin B = reference ligand. The protocol:
A root extract of Morus alba was prepared in accordance with the protocol described in Example 2.1. The Target Binding® method used was that of Example 2.3 which is described in patent application FR 1 670 545. The experimental protocol was as follows:
The target, a 6.25 mg/mL solution of collagenase obtained from Clostridium histolyticum, was prepared by dissolving lyophilized enzyme powder in 50 mM saline phosphate buffer with a pH of 7.5. The sample to be analyzed corresponded to the supernatant of the root extract obtained in accordance with Example 2.1. It could be centrifuged once again before use, at 21000 g for 15 min, in order to remove any traces of solid particles. A reference sample was also prepared by diluting the sample to be analyzed 10-fold in a solution of water and a quarter of the volume of acetonitrile.
1. Preconditioning step—Wells with a filtering membrane were preconditioned with a volume of 500 μL of a saline phosphate buffer which was passed through the membrane by centrifuging at 14000 g for 60 seconds.
2. Binding step—A volume of 92.5 μL of the solution obtained from the pretreatment step was mixed with 7.5 μL of the sample to be analyzed for 10 min in a plastic Eppendorf tube.
3. Washing step—The mixture of the enzyme and the sample to be analyzed was deposited in a well that had been preconditioned in the preconditioning step, then centrifuged at 14000 g until most of the solvent had been eliminated. The enzyme-ligand complexes remained on the surface of the filter membrane, then were re-suspended in a volume of 100 μL of the same saline phosphate buffer solution and centrifuged at 14000 g until the solvent had been eliminated. This procedure was repeated three times and eliminated all of the compounds that were not bound to the enzyme. 4. Separation step—The enzyme-ligand complexes retained in the filter were re-suspended in a volume of 10 μL of ultra-pure water then mixed with a volume of 30 μL of acetonitrile in order to denature and precipitate the enzyme and, at the same time, to liberate the ligands. The mixture was centrifuged at 21000 g for 10 min in order to separate the precipitate from the supernatant. 5. Analysis step—Said supernatant was analyzed by liquid phase chromatography coupled to a mass spectrometer. The reference sample was also analyzed in the same manner, using the same analytical conditions.
as §1

As to `CC(C)=CCc1c(O)ccc(C(=O)[C@@H]2CC(C)=C[C@H](c3c(O)cc(O)c4c(=O)c(CC=C(C)C)c(-c5ccc(O)cc5O)oc34)[C@H]2c2ccc(O)cc2O)c1O` [Moracenin A, moracenin A], the “Relative affinity (RA) for hyaluronidase” value in the experiment with hyaluronidase turned out to be 1.9. Also, the “% inhibition of tyrosinase” value was 18.9% in the experiment with fungal tyrosinase (purified compound, 2.5 μM); 27.7% with fungal tyrosinase (purified compound, 5 μM); 59.0% in the experiment with fungal tyrosinase (purified compound, 20 μM). Moreover, the “Relative affinity (RA) for collagenase” value in experiment [1] stood at 1.1.
For `CC(C)=CCc1c(-c2ccc(O)cc2O)oc2c([C@H]3C=C(C)C[C@H](C(=O)c4ccc(O)cc4O)[C@@H]3c3ccc(O)cc3O)c(O)cc(O)c2c1=O` [Moracenin B, moracenin B] the same measures were 1.0, 22.6%, 33.5%, 69.7% and 1.0.
On to `CC(C)=CCc1c(O)ccc(C(=O)C2C(c3ccc(O)cc3O)CC3(C)CC2c2c(O)cc(-c4cc5ccc(O)cc5o4)cc2O3)c1O` (centres unmarked) [Wittiorumin F, wittiorumin F], for which, in the experiment on hyaluronidase, the “Relative affinity (RA) for hyaluronidase” value is given as 2.1. Moreover, in the experiment with fungal tyrosinase (2.5, 5 and 20 μM), the “rank of tyrosinase inhibiting activity among the 4 purified compounds (in words)” value is given as “best inhibiting activity”. Besides, the “% inhibition of tyrosinase” value with fungal tyrosinase (purified compound, 2.5 μM) was determined as 35.7%; in the experiment with fungal tyrosinase (purified compound, 5 μM), 52.9%; in the experiment on fungal tyrosinase (purified compound, 20 μM), 75.1%. The same molecule gave an inhibition of tyrosinase with fungal tyrosinase (purified compound, 3.2 mg/L) of 52.9%. For the same molecule, the “Relative affinity (RA) for collagenase” value in experiment [1] came to 1.1.
